Results reported in ChEMBL document CHEMBL1138817, “Synthesis and cytotoxic activity of 3-O-acyl/3-hydrazine /2-bromo/20,29-dibromo betulinic acid derivatives” (2004).
≈ marks a conversion by molar mass, not a printed value.

Legend:
Assay type in all cases: functional
A549 = assay: Cytotoxic activity against human A549 cell line was measured after 72 hr using MTT assay; conditions: A549, 72 h, read-out: ED50 (the source's name)
MOLT-4 = assay: Cytotoxic activity against human MOLT-4 cell line was measured after 72 hr using MTT assay; conditions: Homo sapiens, MOLT-4, 72 h; read-out: ED50 (the source's name)
PA-1 = assay: Cytotoxic activity against human PA-1 cell line was measured after 72 hr using MTT assay; conditions: Homo sapiens, PA-1, 72 h; read-out: ED50 (the source's name)
L132 = assay: Cytotoxic activity against human L132 cell line was measured after 72 hr using MTT assay; conditions: L132, 72 h, read-out: ED50 (the source's name)
U-937 = assay: Cytotoxic activity against human U937 cell line was measured after 72 hr using MTT assay; conditions: Homo sapiens, U-937, 72 h; read-out: ED50 (the source's name)
BRISTOL8 = assay: Cytotoxic activity against human BRISTOL8 cell line was measured after 72 hr using MTT assay; conditions: Homo sapiens, BRISTOL8, 72 h; read-out: ED50 (the source's name)
CCRF-CEM = assay: Cytotoxic activity against human CEM.CM3 cell line was measured after 72 hr using MTT assay; conditions: Homo sapiens, CCRF-CEM, 72 h; read-out: ED50 (the source's name)
DU-145 = assay: Cytotoxic activity against human DU145 cell line was measured after 72 hr using MTT assay; conditions: for EC50: Homo sapiens, DU-145, 72 h, read-out: ED50 (the source's name)
Jurkat = assay: Cytotoxic activity against human JurkatE6.1 cell line was measured after 72 h using MTT assay; conditions: for EC50: Homo sapiens, Jurkat, 72 h, read-out: ED50 (the source's name)

Compound	EC50 (A549) [µg/mL]	EC50 (MOLT-4) [µg/mL]	EC50 (PA-1) [µg/mL]	EC50 (L132) [µg/mL]	EC50 (U-937) [µg/mL]	EC50 (BRISTOL8) [µg/mL]	EC50 (CCRF-CEM) [µg/mL]	EC50 (DU-145) [µg/mL]	EC50 (Jurkat) [µg/mL]	ED50 (DU-145) [µg/mL]	ED50 (Jurkat) [µg/mL]
CC(=O)O[C@H]1C(Br)C[C@@]2(C)C(CC[C@]3(C)C2CCC2C4[C@H](C(C)(Br)CBr)CC[C@]4(C(=O)O)CC[C@]23C)C1(C)C (stereo partly drawn)	> 10	2.8 (≈ 3.8 µM)	2.4 (≈ 3.25 µM)	> 10	0.3 (≈ 0.407 µM)	1.4 (≈ 1.9 µM)	2.7 (≈ 3.66 µM)	2.5 (≈ 3.39 µM)	6.9 (≈ 9.36 µM)		
CC(Br)(CBr)[C@@H]1CC[C@]2(C(=O)O)CC[C@]3(C)C(CCC4[C@@]5(C)CC(Br)[C@H](O)C(C)(C)C5CC[C@]43C)C12 (stereo partly drawn)	> 10	3.6 (≈ 5.18 µM)	6 (≈ 8.63 µM)	> 10	> 10	7 (≈ 10.1 µM)	6.8 (≈ 9.78 µM)	> 10	> 10		
C=C(C)[C@@H]1CC[C@]2(C(=O)CC(=O)OC)CC[C@]3(C)C(CCC4[C@@]5(C)CC[C@H](O)C(C)(C)C5CC[C@]43C)C12 (stereo partly drawn)	> 10	3.9 (≈ 7.61 µM)	7.1 (≈ 13.8 µM)	> 10	> 10	4.5 (≈ 8.78 µM)	6.4 (≈ 12.5 µM)	2.9 (≈ 5.66 µM)	7.4 (≈ 14.4 µM)		
C=C(C)[C@@H]1CC[C@]2(C(=O)O)CC[C@]3(C)C(CCC4[C@@]5(C)CC[C@H](OC(=O)C(C)C(=O)OC)C(C)(C)C5CC[C@]43C)C12 (stereo partly drawn)	> 10	1.2 (≈ 2.1 µM)	3.6 (≈ 6.31 µM)	> 10	1.1 (≈ 1.93 µM)	1.7 (≈ 2.98 µM)	1.6 (≈ 2.8 µM)	1.6 (≈ 2.8 µM)	0.9 (≈ 1.58 µM)		
C=C(C)[C@@H]1CC[C@]2(C(=O)OCC(=O)OC)CC[C@]3(C)C(CCC4[C@@]5(C)CC[C@H](O)C(C)(C)C5CC[C@]43C)C12 (stereo in doubt; 3)	> 10	4 (≈ 7.56 µM)	5.9 (≈ 11.2 µM)	> 10	> 10	5.3 (≈ 10 µM)	3.2 (≈ 6.05 µM)			>10	1.4 (≈ 2.65 µM)
C=C(C)[C@@H]1CC[C@]2(C(=O)O)CC[C@]3(C)C(CCC4[C@@]5(C)CC/C(=N\OS(=O)(=O)c6ccc(C)cc6)C(C)(C)C5CC[C@]43C)C12 (stereo partly drawn)	> 10	2.7 (≈ 4.33 µM)	1.8 (≈ 2.89 µM)	> 10	4.8 (≈ 7.69 µM)	3.3 (≈ 5.29 µM)	1.5 (≈ 2.4 µM)	2.8 (≈ 4.49 µM)	4.9 (≈ 7.85 µM)		
COC(=O)C(C)C(=O)O[C@H]1CC[C@@]2(C)C(CC[C@]3(C)C2CCC2C4[C@H](C(C)C)CC[C@]4(C(=O)O)CC[C@]23C)C1(C)C (stereo partly drawn)	2.1 (≈ 3.67 µM)	2.8 (≈ 4.89 µM)	1.3 (≈ 2.27 µM)	7.7 (≈ 13.4 µM)	4 (≈ 6.98 µM)	2.1 (≈ 3.67 µM)	3.1 (≈ 5.41 µM)	1 (≈ 1.75 µM)	3.8 (≈ 6.63 µM)		
COC(=O)CCOC(=O)[C@]12CC[C@@H](C(C)C)C1C1CCC3[C@@]4(C)CC(Br)C(=O)C(C)(C)C4CC[C@@]3(C)[C@]1(C)CC2 (stereo partly drawn)	> 10	1.2 (≈ 1.93 µM)	4.8 (≈ 7.72 µM)	> 10	1.2 (≈ 1.93 µM)	2.3 (≈ 3.7 µM)	1.9 (≈ 3.06 µM)	6.6 (≈ 10.6 µM)	1.9 (≈ 3.06 µM)		
CC(C)[C@@H]1CC[C@]2(C(=O)O)CC[C@]3(C)C(CCC4[C@@]5(C)CC(Br)C(=O)C(C)(C)C5CC[C@]43C)C12 (stereo partly drawn)	> 10	0.4 (≈ 0.747 µM)	0.5 (≈ 0.934 µM)	> 10	1.3 (≈ 2.43 µM)	2.9 (≈ 5.41 µM)	0.3 (≈ 0.56 µM)	3 (≈ 5.6 µM)	0.7 (≈ 1.31 µM)		
CC1(C)C(=O)C(Br)C[C@@]2(C)C1CC[C@]1(C)C2CCC2C3[C@H](C(C)(Br)CBr)CC[C@]3(C(=O)O)CC[C@]21C (stereo partly drawn)	> 10	5.9 (≈ 8.51 µM)	5.1 (≈ 7.36 µM)	> 10	2.1 (≈ 3.03 µM)	3.8 (≈ 5.48 µM)	2.8 (≈ 4.04 µM)	3.6 (≈ 5.19 µM)	2.1 (≈ 3.03 µM)		
COC(=O)COC(=O)[C@]12CC[C@@H](C(C)(Br)CBr)C1C1CCC3[C@@]4(C)CC(Br)C(=O)C(C)(C)C4CC[C@@]3(C)[C@]1(C)CC2 (stereo partly drawn)	> 10	1.3 (≈ 1.7 µM)	2.5 (≈ 3.27 µM)	> 10	0.7 (≈ 0.914 µM)	1.9 (≈ 2.48 µM)	1.2 (≈ 1.57 µM)	4.5 (≈ 5.88 µM)	1.1 (≈ 1.44 µM)		
COC(=O)COC(=O)[C@]12CC[C@@H](C(C)C)C1C1CCC3[C@@]4(C)CC(Br)C(=O)C(C)(C)C4CC[C@@]3(C)[C@]1(C)CC2 (stereo partly drawn)	> 10	1.7 (≈ 2.8 µM)	3.2 (≈ 5.27 µM)	> 10	1.1 (≈ 1.81 µM)	3.4 (≈ 5.6 µM)	2.1 (≈ 3.46 µM)	6.8 (≈ 11.2 µM)	2.8 (≈ 4.61 µM)		
